What was measured:
[1] = tested on: rabbits on a high-cholesterol diet; assay: Test No. 3: cholesterol levels in rabbits on 0.1% cholesterol diet without diabetes; format: in vivo, rabbit; conditions: cholesterol around 250 mg/dl, versus control group and scoparone group (FIG. 3)
Protocol: As further confirmation of this interesting result, we prepared another experimental model. In this case, hypercholesterolaemia was induced in rabbit by administration of a 0.1% cholesterol diet, without simultaneously inducing diabetes. In these experimental conditions, cholesterol levels of around 250 mg/dl were obtained, that is to say, values that are compatible with the pathological situation normally observed in humans affected by hypercholesterol. The rabbits were divided into three treatment groups: controls treated with saline, a second group receiving scoparone and a third receiving cloricromene.

[2] = tested on: hypercholesterolaemic-diabetic rabbits; assay: Test No. 2: weekly cholesterol levels in rabbits with alloxan diabetes on 1% cholesterol diet; format: in vivo
Source text: In the same experimental model, in which a diabetic pathology is induced by treating the animals with alloxan, and hypercholesterolaemia is induced by administering a 1% cholesterol diet, we monitored at weekly intervals the cholesterol levels of the rabbits, which had been divided into the following treatment groups: • 1. Control, treated with saline solution • 2. Scoparone • 3. Cloricromene

[3] = tested on: patients with Peripheral Vascular Disease (PVD) at Fontaine stage II; assay: Multicentre, double-blind, randomised, placebo-controlled study in patients with Peripheral Vascular Disease (Fontaine stage II); format: in vivo, human
Source text: We conducted a multicentre, double-blind, randomised study, controlled versus placebo, on 159 patients with Peripheral Vascular Disease (PVD) at Fontaine stage II, the classic symptom of which is Intermittent Claudication (IC).
In our study, besides assessing the effect of cloricromene on IC, we also studied the cholesterol-lowering effects of the drug and the incidence of major cardiovascular events (myocardial infarction, stroke, vascular death, progression to Fontaine stages III-IV) after a treatment period of six months.
In analysing the cholesterol-lowering effect, 117 patients were considered who presented cholesterol values at baseline of over 190 mg/dI.
The critical value of 190 mg/dl was selected on the basis of data from the international literature that report this value as the risk threshold in pathologies such as cardiac ischaemia and atherosclerosis in general, in which excessive cholesterol represents a real risk factor. Therefore, the patients who presented cholesterol values equal to or over 190 mg/dl were considered to be at risk from said pathologies.
For the purposes of this analysis, 58 patients were treated for 6 months with 200 mg of cloricromene per day (one capsule of 100 mg twice a day), while the remaining 59 patients were treated with placebo (Table). All the patients also took aspirin at a dose of 160 mg/day throughout the trial.

[4] = tested on: hypercholesterolaemic-diabetic rabbits; assay: Test No. 1: tolerability and cholesterol-lowering effect in rabbits on 1% cholesterol diet with alloxan-induced diabetes; format: in vivo, rabbit; conditions: for body weight curve: treated chronically for 4-5 weeks, weighed weekly, versus untreated control group (FIG. 1)
Protocol: A preliminary experiment was performed to assess the ability of cloricromene to reduce plasma levels of cholesterol and triglycerides in rabbits fed on a high-fat diet, treated chronically for 4-5 weeks. As reference product we used scoparone, as it is the only coumarin derivative of vegetable origin with a documented effect on these parameters.
The experimental model induces high levels of cholesterol and triglycerides in the plasma by a 1% cholesterol-enriched diet, simultaneously inducing diabetes by injection of alloxan, a highly toxic product for the β cells of the pancreas. In this way, it is possible to reach very high values of cholesterol and triglycerides in the system rapidly. The body weight of the animals and the plasma levels of the test parameters were assessed weekly throughout the experiment.

[5] = 1% cholesterol diet + alloxan, 4-5 weeks, cloricromene group versus scoparone group

Row | Compound | cholesterol levels [1] | cholesterol levels ([2]; 1% cholesterol diet + alloxan, versus saline control and scoparone, evident from third week of treatment (FIG. 2)) | Cholesterol levels at week 24 ([3]; 58 patients with baseline cholesterol over 190 mg/dl, after 6 months of 200 mg cloricromene per day (100 mg capsule twice a day), plus aspirin 160 mg/day, p = 0.0035 vs week 0) | Cholesterol levels at Week 0 ([3]; 58 patients with baseline cholesterol over 190 mg/dl, baseline before 200 mg cloricromene per day, plus aspirin 160 mg/day) | difference in cholesterol between treatment groups (analysis of covariance) ([3]; cloricromene versus placebo, 6 months, p=0.04, α=0.05) | major cardiovascular events or deaths ([3]; patients, treatment period of six months) | plasma levels of cholesterol [4, 5] | plasma levels of triglycerides [4, 5] | body weight curve ([4]; 1% cholesterol diet + alloxan) | toxic activity on repeated administration over long periods ([4]; repeated administration, in comparison to scoparone) | number of animals that completed the treatment ([2]; end of experiment, scoparone group versus cloricromene group)
1 | CCOC(=O)COc1ccc2c(C)c(CCN(CC)CC)c(=O)oc2c1Cl [cloricromene, 8-chloro-3(β-diethylaminoethyl)-4-methyl-7-ethoxycarbonylmethoxy coumarin] | markedly lower | markedly lower than those of both the control group and that treated with scoparone | 229 ± 32 | 243 ± 31 | statistically significant in favour of the group treated with cloricromene | no major cardiovascular events or deaths were observed | tended to be lower | tended to be lower | superimposable on that of the control group | absolute lack of toxic activity | 
2 | COc1cc2ccc(=O)oc2cc1OC [scoparone] |  |  |  |  |  |  |  |  | marked and progressive reduction in body weight |  | considerably lower
